Experimental data from BindingDB's records for doi:10.3109/14756360903468171 (2010).

Target: T1, Peroxisome proliferator-activated receptor gamma (Homo sapiens, UniProt P37231)
T1 sequence (P37231 whole entry): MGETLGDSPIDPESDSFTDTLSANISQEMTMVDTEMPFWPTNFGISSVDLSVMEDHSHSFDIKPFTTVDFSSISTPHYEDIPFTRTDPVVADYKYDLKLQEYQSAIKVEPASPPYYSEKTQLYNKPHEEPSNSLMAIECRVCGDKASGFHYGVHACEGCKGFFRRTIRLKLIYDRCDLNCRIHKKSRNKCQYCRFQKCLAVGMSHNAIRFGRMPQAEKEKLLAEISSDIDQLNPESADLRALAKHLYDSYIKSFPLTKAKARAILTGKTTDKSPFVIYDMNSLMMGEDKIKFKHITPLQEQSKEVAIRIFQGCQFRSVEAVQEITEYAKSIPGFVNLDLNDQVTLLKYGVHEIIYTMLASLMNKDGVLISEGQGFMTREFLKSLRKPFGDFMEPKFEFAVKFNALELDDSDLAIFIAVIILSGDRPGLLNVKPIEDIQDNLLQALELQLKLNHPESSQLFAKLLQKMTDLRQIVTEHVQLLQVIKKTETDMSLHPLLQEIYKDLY
Assay: Pharmacological In Vitro Assay
Conditions: pH 8.2; 4 °C
Experimental: Binding assays were performed in 96-well plate format, using a classical filtration assay with a human full length PPARγ construct (GST-PPAR LBD (25 μg/mL)) expressed in bacteria with some modifications regarding the conditionsof the experiments. The membrane-associated PPARγ was used as the biological source as previously described. Binding buffer consisted of 10 mM Tris/HCl, pH 8.2, containing 50 mM KCl and 1 mM dithiothreitol. Membrane preparations (5 μg/mL) were incubated for 180 min at 4°C in the presence of [3H]rosiglitazone (BRL49653, Amersham) (4 nM) and the tested compounds. Nonspecific binding was defined using an excess of unlabeled rosiglitazone (10 μM). Incubation was terminated by the addition of ice-cold 50 mM Tris/HCl buffer pH 7.4, followed by rapid filtrationunder reduced pressure through Whatman GF/C filter plates presoaked with ice-cold buffer, followed by three successive washes with the same buffer. Radioactivity was measured in a TopCount apparatus (Packard).

SMILES	Ki
CCCCCCCCOc1nc2ccccc2cc1C(O)CC#CCCCC(=O)OC (centres undefined) [8-Hydroxy-8-(2-octyloxy-quinolin-3-yl)-oct-5-ynoic acid methyl ester (8c)]	> 10 µM
CCCCCOc1nc2c(ccc3ccccc32)cc1C(O)CC#CCCCC(=O)OC (centres undefined) [8-Hydroxy-8-(2-pentyloxy-benzo[h]quinolin-3-yl)-oct-5-ynoic acid methyl ester (26b)]	> 10 µM
CCCCCOc1nc2ccccc2cc1C(O)CC#CCCCC(=O)NCCO (centres undefined) [8-Hydroxy-8-(2-pentyloxy-quinolin-3-yl)-oct-5-ynoic acid (2-hydroxy-ethyl)-amide (14a)]	> 10 µM
CCCCCOc1nc2ccccc2cc1C(O)CC#CCCCC(=O)OC (centres undefined) [8-Hydroxy-8-(2-pentyloxy-quinolin-3-yl)-oct-5-ynoic acid methyl ester]	> 10 µM
COCCCOc1nc2ccccc2cc1C(O)CC#CCCCC(=O)OC (centres undefined) [8-Hydroxy-8-[2-(3-methoxy-propoxy)-quinolin-3-yl]-oct-5-ynoic acid methyl ester (8d)]	> 10 µM
COC(=O)CCCC#CCC(O)c1cc2ccccc2nc1OCCCC(F)(F)F (centres undefined) [8-Hydroxy-8-[2-(4,4,4-trifluoro-butoxy)-quinolin-3-yl]-oct-5-ynoic acid methyl ester (8e)]	> 10 µM
COc1nc2ccccc2cc1C(O)CC#CCCCC(=O)O (centres undefined) [Sodium 8-hydroxy-8-(2-methoxy-quinolin-3-yl)-oct-5-ynoate (9b)]	> 10 µM
CCCCCCCCOc1nc2ccccc2cc1C(O)CC#CCCCC(=O)O (centres undefined) [Sodium 8-hydroxy-8-(2-octyloxy-quinolin-3-yl)-oct-5-ynoate (9c)]	0.378 µM
CCCCCOc1nc2c(ccc3ccccc32)cc1C(O)CC#CCCCC(=O)O (centres undefined) [Sodium 8-hydroxy-8-(2-pentyloxy-benzo[h]quinolin-3-yl)-oct-5-ynoate (27b)]	> 10 µM
CCCCCOc1nc2ccc(OC)cc2cc1C(O)CC#CCCCC(=O)O (centres undefined) [Sodium 8-hydroxy-8-(6-methoxy-2-pentyloxy-quinolin-3-yl)-oct-5-ynoate (27a)]	0.583 µM
COCCCOc1nc2ccccc2cc1C(O)CC#CCCCC(=O)O (centres undefined) [Sodium 8-hydroxy-8-[2-(3-methoxy-propoxy)-quinolin-3-yl]-oct-5-ynoate (9d)]	> 10 µM
O=C(O)CCCC#CCC(O)c1cc2ccccc2nc1OCCCC(F)(F)F (centres undefined) [Sodium 8-hydroxy-8-[2-(4,4,4-trifluoro-butoxy)-quinolin-3-yl]-oct-5-ynoate (9e)]	> 10 µM
COc1nc2ccccc2cc1C(O)CC#CCOCC(=O)O (centres undefined) [Sodium [5-hydroxy-5-(2-methoxy-quinolin-3-yl)-pent-2-ynyloxy]-acetate (18b)]	3.81 µM
CCCCCOc1nc2ccccc2cc1C(O)CC#CCOCC(=O)O (centres undefined) [Sodium [5-hydroxy-5-(2-pentyloxy-quinolin-3-yl)-pent-2-ynyloxy]-acetate (18a)]	1.93 µM
